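1) Cells in 96-well plates. 2) Compound, 48 h, 5 concentrations. 3) Linear interpolation between surrounding doses. 4) Unreached endpoint = highest concentration. GI50: concentration for 50% inhibition of growth. TGI: total growth inhibition.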
What was measured:
Assay in all cases: DTP human tumour cell line panel, 48 h
SF-539 CNS = system: SF-539 CNS
SF-295 CNS = system: SF-295 CNS
KM12 colon = system: KM12 colon
CCRF-CEM leukemia = system: CCRF-CEM leukemia
U251 CNS = system: U251 CNS
UACC-62 melanoma = system: UACC-62 melanoma
K-562 leukemia = system: K-562 leukemia
IGROV1 ovarian = system: IGROV1 ovarian
SK-MEL-2 melanoma = system: SK-MEL-2 melanoma
HL-60(TB) leukemia = system: HL-60(TB) leukemia

| SMILES | GI50 (SF-539 CNS) | TGI (SF-539 CNS) | GI50 (SF-295 CNS) | TGI (SF-295 CNS) | GI50 (KM12 colon) | TGI (KM12 colon) | GI50 (CCRF-CEM leukemia) | TGI (CCRF-CEM leukemia) | GI50 (U251 CNS) | TGI (U251 CNS) | GI50 (UACC-62 melanoma) | TGI (UACC-62 melanoma) | GI50 (K-562 leukemia) | TGI (K-562 leukemia) | GI50 (IGROV1 ovarian) | TGI (IGROV1 ovarian) | GI50 (SK-MEL-2 melanoma) | TGI (SK-MEL-2 melanoma) | GI50 (HL-60(TB) leukemia) | TGI (HL-60(TB) leukemia) |
| --- | --- | --- | --- | --- | --- | --- | --- | --- | --- | --- | --- | --- | --- | --- | --- | --- | --- | --- | --- | --- |
| CCOc1ccc(-c2nonc2NC(=O)c2cccc(C)c2)cc1OCC | 35.5 µM | > 100 µM | 30.4 µM | > 100 µM | > 100 µM | > 100 µM | > 100 µM | > 100 µM | 30.5 µM | > 100 µM | > 100 µM | > 100 µM | > 100 µM | > 100 µM | 67 µM | > 100 µM | > 100 µM | > 100 µM | > 100 µM | > 100 µM |
| Cc1ccccc1C(=O)c1ccccc1O | – | > 100 µM | – | > 100 µM | – | > 100 µM | – | > 100 µM | – | > 100 µM | – | > 100 µM | – | > 100 µM | – | > 100 µM | – | > 100 µM | – | > 100 µM |
| O=C(CO)CC(=O)C(=O)Nc1ccccc1 | – | > 100 µM | – | > 100 µM | – | > 100 µM | – | > 100 µM | – | > 100 µM | – | > 100 µM | – | > 100 µM | – | > 100 µM | – | > 100 µM | – | > 100 µM |
| C#CCC(Cc1cnc2nc(N)nc(N)c2n1)c1ccc(C(=O)N[C@@H](CCC(=O)O)C(=O)O)cc1 (stereo not given in full) | < 0.01 µM | > 100 µM | < 0.01 µM | > 100 µM | < 0.01 µM | > 100 µM | < 0.01 µM | > 100 µM | < 0.01 µM | > 100 µM | < 0.01 µM | > 100 µM | < 0.01 µM | > 100 µM | < 0.01 µM | > 100 µM | > 100 µM | > 100 µM | < 0.01 µM | > 100 µM |
| Cn1c(=O)nc2n(-c3cccc(Br)c3)c3ccccc3nc-2c1=O | – | 18.2 µM | – | 18.6 µM | – | 21 µM | – | 26.9 µM | – | 19.2 µM | – | 3.27 µM | – | 35.9 µM | – | 23.7 µM | – | 18.2 µM | – | 9.76 µM |
| N#CC(C(=O)/C(=N/N)C(C#N)c1ccccc1)c1ccccc1 (stereo not given) | – | > 100 µM | – | > 100 µM | – | > 100 µM | – | > 100 µM | – | > 100 µM | – | > 100 µM | – | > 100 µM | – | > 100 µM | – | > 100 µM | – | > 100 µM |
| CC(C)(C)c1nn(-c2ccccc2)c2c1C(=O)CSC(c1ccccc1Cl)N2 (stereo not given) | 2.36 µM | 10.1 µM | 0.746 µM | 10.5 µM | 1.48 µM | 14.7 µM | 2.48 µM | 13.5 µM | 2.41 µM | 15.5 µM | 0.775 µM | 15 µM | 0.583 µM | 14.9 µM | 3.52 µM | 43 µM | 2.1 µM | 13.4 µM | 2.28 µM | 10.2 µM |

— PubChem BioAssay (NCI)
